Measurements: US6906049B1, “Contraceptive medicine based on a progestational agent and an oestrogen and preparation method” (Laboratoire Theramex, priority 1996, dated 2005)

Columns and labels:
[1] = system: female volunteers in the period of ovarian activity; test: Randomized double-blind study of the anti-ovulatory action of the oestradiol/nomegestrol acetate combination in 38 female volunteers; format: in vivo, women; conditions: day 1-21, m ± sem
Procedure: The anti-ovulatory action of the oestradiol/nomegestrol acetate combination was evaluated in a randomized double-blind study on 38 female volunteers, in good health, aged 18 to 35, in the period of ovarian activity, for whom it was checked beforehand, by means of an assay of the progesterone in the plasma and the establishment of a temperature curve, that they had ovulatory menstrual cycles.
The women were monitored for two consecutive cycles: the first was a control cycle without treatment; during the following cycle (cycle under treatment), they received a hormonal treatment administered orally daily from the 1st to the 21st day of the cycle.
According to the randomization: • 9 women received 1.5 mg of oestradiol+0.625 mg of nomegestrol acetate (group A), • 10 others received 1.5 mg of oestradiol+1.25 mg of nomegestrol acetate (group B), • another 10 received 1.5 mg of oestradiol+2.5 mg of nomegestrol acetate (group C), • and the other 9 were treated with nomegestrol acetate alone at a dose of.2.5 mg (group D).
During the control cycle, the hormonal parameters were not significantively different among the four groups. Table I indicates the mean concentrations observed for each hormonal parameter in the course of the 21 days of treatment.

ovulation [2] = conditions: cited from earlier work
ovulation [3] = test: Inhibition of ovulation in women (literature data); format: in vivo; conditions: as defined by Neumann (1977)
Procedure: The oestrogenic component involves oestradiol or an ester or an ether thereof, such as, for example, the valerate, benzoate, enanthate, etc., the doses used being calculated as oestradiol equivalents. The doses range from 0.3 mg to 3 mg per day with a preference for a range from 0.5 mg to 2 mg per day. According to the literature data (Hirvonen, 1995), a dose of 4 mg is needed to ensure the inhibition of ovulation, but they correspond to the doses used to compensate for hypooestrogenic states. For example, in menopausal women, the dose recommended to compensate for hypooestrogenic states is about 1.5 mg.
(§1) The ratio of the ovulation-inhibiting activity in women (in mg/day) to the endometrial luteinizing |activity (in mg/cycle) as defined by Neumann (1977) is thus in the order of 0.2, i.e. close to those of cyproterone acetate and chlormadinone acetate; this indicates a strong central activity (Oettel et al., 1999). In this sense, it clearly differs from dienogest, whose activity is disequilibrated to the benefit of the peripheral activity.

endometrium = test: Clinical trial similar to the Kaufmann's trial (endometrial conversion); format: in vivo, women
Excerpt: as §1

women = test: Another clinical trial, same methodology, with the progestative agent alone; format: in vivo; conditions: NOMAC 1.25 mg alone (n=3), treated cycle
Procedure: This synergistic effect of oestradiol is confirmed by comparing the results of this study with those of another clinical trial performed according to the same methodology, but with the progestative agent alone. […] On the other hand, the addition of oestradiol lowers the plasmatic levels of oestradiol, assayed 24 hours after taking the medicinal product, by about […]; this parameter is a good reflection of the endogenous secretion of the ovaries (Table II).

| SMILES | LH mean concentration in the plasma ([1]; Group D (n=9): 2.5 mg NOMAC alone oral daily) [mIU/ml] | FSH mean concentration in the plasma ([1]; Group D: 2.5 mg NOMAC alone) [mIU/ml] | Oestradiol mean concentration in the plasma ([1]; Group D: 2.5 mg NOMAC alone) [pg/mL] | Progesterone mean concentration in the plasma ([1]; Group D: 2.5 mg NOMAC alone) [ng/mL] | Effect on ovulation (ovulation [2]; given alone at 1.25 mg per day, oestradiol level in plasma increases) | Daily dose giving inhibition of ovulation and of follicle development in women (ovulation [2]; nomegestrol acetate alone, Bazin et al., 1987) [mg] | Ratio of ovulation-inhibiting activity (mg/day) to endometrial luteinizing activity (mg/cycle) (ovulation [3]) | Daily dose giving endometrial conversion (endometrium; daily dose) [mg] | Dose for the entire cycle giving endometrial conversion (endometrium; entire cycle) [mg] | FSH mean concentration in the plasma (women) [mIU/ml] | LH mean concentration in the plasma (women) [mIU/ml] | Oestradiol mean concentration in the plasma (women) [pg/mL] | Dose needed to ensure the inhibition of ovulation (ovulation [2]; oestradiol alone, Hirvonen, 1995) [mg] |
| --- | --- | --- | --- | --- | --- | --- | --- | --- | --- | --- | --- | --- | --- |
| CC(=O)O[C@]1(C(C)=O)CC[C@H]2[C@@H]3C=C(C)C4=CC(=O)CC[C@@H]4[C@H]3CC[C@@]21C [NOMAC, nomegestrol acetate] | 5.6 ± 0.62 | 7.6 ± 0.28 | 31.9 ± 3.91 | 0.07 ± 0.014 | abolishes ovulation | 2.5 | ~0.2 | 1 | 10 | 3.3 | 3.1 | 158.8 | – |
| C[C@]12CC[C@@H]3c4ccc(O)cc4CC[C@H]3[C@@H]1CC[C@@H]2O [oestradiol, 17beta-oestradiol] | – | – | – | – | – | – | – | – | – | – | – | – | 4 |
